In patent US20250134790A1, “ANTIMICROBIAL COMPOSITIONS” (Firmenich SA, priority 2021, published 2025):
Where two headings read alike, the source gives them in different places.

Test system: Escherichia coli ATCC 10536
Test: Robotic bacteria contact time (BCT) test of perfume ingredients in surfactant bases (EN-1276 based)
Format: cell-based
Details: contact time 45 seconds; for log reduction at 1 % / log reduction at 0.5 %: Escherichia coli, ATCC10536, 45 s; for log reduction at 1 % / Log reduction: surfactant base B, perfume ingredient 1% wt; for log reduction at 0.5 %: surfactant base A, perfume ingredient 0.5 % wt
Procedure: a. Preparation of Test Samples
Test samples were prepared by mixing perfume ingredients with the surfactant bases and vigorously stirred for 24 hrs. Samples with transparent appearance were selected for antimicrobial testing.
b. Measurement of Antimicrobial Efficacy of Fragrance Materials in Surfactant Systems
Preparation of screening plate and dilution plate: Aliquots (270 μl) of compositions were dispensed into the wells of a 96-well microtiter plate (MTP) along two columns (B1-H1, and B7-H7), and 270 μl of MilliQ water was added to well A1 and A7 as the control samples. This MTP was labelled as the “Screening plate”. In another MTP, labelled as the “Dilution plate”, 270 μL of Dey-Engley (D/E) neutralizing solution was added to column 1 and column 7. 270 μl of tryptone diluent solution was added to columns 2-6 and columns 8-12 of the Dilution MTP by a Hamilton robotic liquid handling station.
BCT test & neutralization & dilution: Bacterial stock (30 μl) was then added to columns 1 of the ‘Screening plate’ and mixed by a Hamilton robotic liquid handling station. After a contact time of 45 seconds, 30 μl of the mixtures in column 1 were transferred into the corresponding wells of column 1 of the ‘Dilution plate’. After neutralizing for 5 minutes in the D/E neutralizing solution, 30 μl of the neutralized mixtures were transferred from column 1 to column 2 of the Dilution MTP and mixed, followed by transferring 30μl of the mixtures from column 2 into column 3. This process was repeated serially diluting the bacteria suspensions across the plate to column 6. Bacterial stock (30 μl) was then added to columns 7 of the ‘Screening plate’ and mixed by a Hamilton robotic liquid handling station. After a contact time of 45 seconds, 30 μl of the mixtures in column 7 were transferred into the corresponding wells of column 7 of the ‘Dilution plate’. After neutralizing for 5 minutes in the D/E neutralizing solution, 30 μl of the mixtures were transferred from column 7 to column 8 of the Dilution MTP and mixed, followed by transferring further 30μl mixtures from column 8 into column 9. This process was repeated serially diluting the bacteria suspensions across the plate to column 12.
Plating: 30 μl volumes from each well in the Dilution MTP were transferred onto four Tryptone Soya Agar (TSA) plates. The TSA plates were allowed to stand for about two hours so that the 30 μl inocula spots could dry and the plates were then inverted and incubated overnight at 37° C. for 24 hours. After incubation, colonies were counted.
Calculating log reduction: Select the dilutions with colony counts, and calculate the viable cell counts (CFU/mL) of mixture in ‘Screening plate’, and log reduction against the control MilliQ sample was calculated.

[1] = no SCS (/), read-out: Log reduction
[2] = sodium cumene sulfonate (SCS) 3.00 % wt, read-out: Log reduction
[3] = sodium salicylate 3.00, read-out: Log reduction
[4] = sodium cumene sulfonate (SCS) 3.00 % wt

Compound | log reduction at 1 % [1] | log reduction at 1 % [2] | log reduction at 1 % [3] | Log reduction (no SCS (/)) | Log reduction [4] | Log reduction (sodium salicylate 3.00) | also measured
CC(C)=CCCC(C)CC#N (centres unmarked) [3,7-dimethyl-6-octenenitrile] | 0.1 | > 5 | > 5 | – | – | – | –
C=CC(C)(O)CCCC(C)C (centres unmarked) [3,7-dimethyl-1-octen-3-ol] | -0.1 | > 5 | > 5 | – | – | – | –
CC(C)=CCCC(C)CCO (centres unmarked) [3,7-dimethyl-6-octen-1-ol] | – | – | – | Insoluble | Insoluble | Insoluble | log reduction at 0.5 % (read-out: Log reduction): 2.8
CCCC=C1OC(=O)c2ccccc21 [3-butylidene-1-benzo[C] furanone] | – | – | – | – | – | Insoluble | log reduction at 1 % (no SCS (/)): 0.2; log reduction at 1 % [4]: > 5
CCCCCCCC1CCC(=O)O1 (centres unmarked) [5-heptyldihydro-2(3H)-furanone] | – | – | – | – | – | – | log reduction at 0.5 %: 1.3; log reduction at 1 % (no SCS (/)): -0.2; log reduction at 1 % [4]: 4.9; log reduction at 1 % (sodium salicylate 3.00): > 5
CCCCCCCC=O [Octanal, octanal] | – | – | – | Insoluble | Insoluble | Insoluble | –
cyclopropylmethyl (3Z)-3-hexenoate OR cyclopropylmethyl (3E)-3-hexenoate | – | – | – | 0.1 | >5 | >5 | –
CC(=O)OCCC1CCCCC1 [2-cyclohexylethyl acetate] | 0 | > 5 | > 5 | – | – | – | –
CC(=CC=O)CCC(C)=C(C)C [3,6,7-trimethyl-2,6-octadienal] | 3.3 | > 5 | – | – | – | Insoluble | –
C/C=C\C(C)(O)CCC=C(C)C (centres unmarked) [(2Z)-4,8-dimethyl-2,7-nonadien-4-ol] | -0.1 | > 5 | > 5 | – | – | – | –
